{
  "source": "ChEMBL document CHEMBL5550210",
  "about": "“Discovery of Novel α,β-Unsaturated Amide Derivatives as Candidate Antifungals to Overcome Fungal Resistance” (J Med Chem, 2024)",
  "key": {"[1]": {"assay": "Oral bioavailability in Sprague-Dawley rat at 5 mg/kg by LC-MS/MS analysis", "assay_type": "ADME, organism-based", "conditions": "in vivo"}, "[2]": {"assay": "Acute toxicity in Kunming male mouse assessed as liver damage at 100 mg/kg,po administrated for 7 days by hematoxylin and eosin staining based microscopic analysis", "assay_type": "organism-based", "conditions": "in vivo, 168 h, time 7 day"}, "[3]": {"assay": "Half life in Sprague-Dawley rat at 2 mg/kg,iv by LC-MS/MS analysis", "assay_type": "ADME, organism-based", "conditions": "in vivo"}, "[4]": {"assay": "Subacute toxicity in Kunming mouse assessed as behavioral change at 100 mg/kg,po administrated once daily for 14 days", "assay_type": "organism-based", "conditions": "in vivo, 336 h, time 14 day"}, "Candida albicans [5]": {"test_system": "Candida albicans", "assay": "Antifungal activity against fluconazole-resistant Candida albicans 904 infected ICR mouse model assessed as reduction in fungal burden in kidney at 10 to 20 mg/kg,ip administration for 5 days", "assay_type": "functional, organism-based", "conditions": "dose 10-20 mg/kg, time 5.0 day"}, "Candida albicans [6]": {"test_system": "Candida albicans", "assay": "Antifungal activity against Candida albicans SC5314 assessed as fungal cell membrane injury at 16 ug/ml incubated for 24 hrs by transmission electron microscopic analysis", "assay_type": "functional, organism-based", "conditions": "dose 16.0 µg/ml"}, "Candida albicans [7]": {"test_system": "Candida albicans", "assay": "Antifungal activity against fluconazole-resistant Candida albicans 904 infected ICR mouse model assessed as median survival time at 10 mg/kg,ip administration for 14 days", "assay_type": "functional", "conditions": "time 14 day"}, "[8]": {"assay": "Acute toxicity in Kunming mouse assessed as increase in body weight at 100 mg/kg,po administrated once daily for 14 days", "assay_type": "organism-based", "conditions": "in vivo, 336 h, time 14 day"}, "[9]": {"assay": "Acute toxicity in Kunming mouse assessed as animal death at 1000 mg/kg,po administrated for 7 days", "assay_type": "organism-based", "conditions": "in vivo, 168 h, time 7 day"}, "Candida albicans [10]": {"test_system": "Candida albicans", "assay": "Fungicidal activity against fluconazole-resistant Candida albicans 904 assessed as reduction in colony forming units at 32 times MIC incubated for 24 hrs by time-kill curve assay", "assay_type": "functional"}, "[11]": {"assay": "Acute toxicity in Kunming female mouse assessed as liver damage at 100 mg/kg,po administrated for 7 days by hematoxylin and eosin staining based microscopic analysis", "assay_type": "organism-based", "conditions": "in vivo, 168 h, time 7 day"}, "[12]": {"assay": "AUC (0 to infinity) in Sprague-Dawley rat at 2 mg/kg,iv by LC-MS/MS analysis", "assay_type": "ADME, organism-based", "conditions": "in vivo"}},
  "note": "Activity calls are given as the source filed them. The calls are words filed in the database; no cut-off is given here.",
  "data": [
    {"compound": "CCCCNC(=O)/C=C/c1ccc(COC(Cn2ccnc2)c2ccc(Cl)cc2Cl)cc1", "note": "(configuration not stated)", "values": [
      {"measurement": "bioavailability", "setting": "[1]", "result": 12.8, "unit": "%"},
      {"measurement": "Activity", "setting": "[2]", "result": "Toxic"},
      {"measurement": "half-life", "setting": "[3]", "result": 1.72, "unit": "h"},
      {"measurement": "Activity", "setting": "[4]", "result": "Non-Toxic"},
      {"measurement": "Activity", "setting": "Candida albicans [5]", "result": "Active"},
      {"measurement": "Activity", "setting": "Candida albicans [6]", "result": "Active"},
      {"measurement": "MST", "setting": "Candida albicans [7]", "result": 10, "unit": "days"},
      {"measurement": "Activity", "setting": "[8]", "result": "Toxic"},
      {"measurement": "Activity", "setting": "[9]", "result": "Non-Toxic"},
      {"measurement": "Activity", "setting": "Candida albicans [10]", "result": 2, "unit": "log10CFU/ml"},
      {"measurement": "Activity", "setting": "[11]", "result": "Toxic"},
      {"measurement": "AUC(0-inf)", "setting": "[12]", "result": 1410, "unit": "ng·h/mL"}
    ]}
  ]
}
